For eleven compounds, TGI results are on record in PubChem BioAssay (NCI).

Structures are written as SMILES.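 48-hour exposure; five concentrations; linearly interpolated endpoints. TGI: concentration producing complete growth inhibition.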

Some test systems named below: ACHN renal; EKVX NSCLC; HCT-116 colon; HS 578T breast; KM12 colon; MDA-N; NCI-H460 lung; SK-MEL-5 melanoma; SR leukemia; U251 CNS; UACC-257 melanoma; UO-31 renal.
Holding throughout (assay): DTP human tumour cell line panel, 48 h

Take `CCC(=O)OCc1ccc2oc(=O)c(C(=O)Oc3cncc(Cl)c3)cc2c1`: the TGI in the test on ACHN renal, in the test with EKVX NSCLC, in the test on HCT-116 colon, in the test on HS 578T breast, in the test with KM12 colon and in the test with MDA-N was over 100 µM in each case. Also, the TGI in the test on NCI-H460 lung, with SK-MEL-5 melanoma, in the test with SR leukemia, in the test on U251 CNS, in the test on UACC-257 melanoma and with UO-31 renal was over 100 µM throughout.

Turning to `C=C(C)CCC1CCCCC(CN(C)C)C1=O` (configuration not stated), the TGI in the test on ACHN renal, with EKVX NSCLC, with HCT-116 colon, in the test with HS 578T breast, in the test with KM12 colon and in the test with MDA-N was over 100 µM each time. Also, the TGI in the test on NCI-H460 lung, with SK-MEL-5 melanoma, in the test with SR leukemia, in the test on U251 CNS, with UACC-257 melanoma and in the test on UO-31 renal was over 100 µM in each case.

With `C/C(Cl)=N\OC(=O)Nc1ccccc1C(F)(F)F`, the TGI (in general, the concentration at which net growth stops) in the test on ACHN renal is 35.2 µM; with EKVX NSCLC, 57.6 µM; in the test on HCT-116 colon it was over 100 µM; in the test on HS 578T breast it was over 100 µM; in the test with KM12 colon, over 100 µM; in the test with MDA-N, 31.7 µM. The TGI in the test on NCI-H460 lung was over 100 µM; in the test on SK-MEL-5 melanoma, over 100 µM; with SR leukemia, 44.9 µM; in the test on U251 CNS, over 100 µM; in the test on UACC-257 melanoma, over 100 µM; with UO-31 renal, over 100 µM.

Regarding `Cc1cc(C)c2c(n1)S(=O)(=O)N(CCCN1CCN(c3cccc(C(F)(F)F)c3)CC1)/C(=C(\O)c1ccccc1)C2=O`, the TGI in the test with ACHN renal is over 100 µM; with EKVX NSCLC it was 37.6 µM; in the test on HCT-116 colon it was 18.3 µM; in the test on HS 578T breast it was over 100 µM; in the test with KM12 colon it was 27 µM; in the test on MDA-N it was over 100 µM. Moreover, the TGI in the test on NCI-H460 lung was 22.3 µM; with SK-MEL-5 melanoma, 14.1 µM; with SR leukemia, 18.7 µM; in the test on U251 CNS it was over 100 µM; in the test on UACC-257 melanoma, 32.4 µM; in the test on UO-31 renal, 52.7 µM.

Consider `COC(=O)c1ccc2n1C1CC3CC(CC2C3)C1`, for which the TGI in the test with ACHN renal, in the test with EKVX NSCLC, in the test with HCT-116 colon, in the test with HS 578T breast, in the test with KM12 colon and with MDA-N was over 100 µM in each case. In addition, the TGI in the test on NCI-H460 lung, with SK-MEL-5 melanoma, with SR leukemia, in the test on U251 CNS, in the test with UACC-257 melanoma and in the test with UO-31 renal was over 100 µM throughout.

With `O=C(O)c1c(-c2c3ccc(=O)cc-3oc3cc(O)ccc23)cc2ccccc2c1-c1ccccc1`, the TGI with ACHN renal, in the test on EKVX NSCLC, in the test with HCT-116 colon, with HS 578T breast, with KM12 colon and with MDA-N was over 100 µM each time. For the same compound, the TGI in the test with NCI-H460 lung, in the test on SK-MEL-5 melanoma, with SR leukemia, with U251 CNS, with UACC-257 melanoma and in the test with UO-31 renal was over 100 µM throughout.

Take `O=C(O)c1c(CC(Cc2ccc3c(c2)CCCC3)C(=O)O)ccc2c1CCCC2` (configuration not stated): the TGI in the test with ACHN renal, in the test on EKVX NSCLC, in the test on HCT-116 colon, in the test on HS 578T breast, with KM12 colon and with MDA-N was over 100 µM in each case. Further, the concentration for total growth inhibition (TGI) in the test on NCI-H460 lung, in the test on SK-MEL-5 melanoma, in the test on SR leukemia, in the test on U251 CNS, in the test with UACC-257 melanoma and in the test with UO-31 renal was over 100 µM each time.

For the compound `CCOC(=O)CCC(C(=O)OCC)n1nc2ccc(Nc3c(C)[n+]([O-])c4cc(Cl)ccc4[n+]3[O-])cc2n1` (configuration not stated), the TGI in the test on ACHN renal, in the test on EKVX NSCLC, in the test on HCT-116 colon, in the test with HS 578T breast, with KM12 colon and with MDA-N was over 100 µM in each case. In addition, the TGI with NCI-H460 lung is 67.4 µM; with SK-MEL-5 melanoma, over 100 µM; with SR leukemia it was over 100 µM; in the test with U251 CNS it was over 100 µM; with UACC-257 melanoma it was over 100 µM; in the test on UO-31 renal it was over 100 µM.

Turning to `OC(c1cccs1)c1cc2ccccc2s1` (configuration not stated), the TGI in the test on ACHN renal, with EKVX NSCLC, with HCT-116 colon, with HS 578T breast, with KM12 colon and in the test on MDA-N was over 10 µM each time. Also, the TGI with NCI-H460 lung, in the test on SK-MEL-5 melanoma, in the test on SR leukemia, in the test on U251 CNS, with UACC-257 melanoma and in the test on UO-31 renal was over 10 µM each time.

For the compound `CCN1/C(=C/c2ccc3ccccc3[n+]2CC)C=Cc2ccccc21`, the TGI in the test on ACHN renal amounted to 31.5 µM; in the test on EKVX NSCLC, 16.7 µM; in the test with HCT-116 colon it was 11.7 µM; with HS 578T breast, 12.5 µM; in the test on KM12 colon it was 1.4 µM; in the test with MDA-N it was 2.04 µM. In addition, the TGI is 4.95 µM with NCI-H460 lung; 3.77 µM in the test with SK-MEL-5 melanoma; over 100 µM in the test with SR leukemia; 11.1 µM with U251 CNS; 7.22 µM with UACC-257 melanoma; 8.45 µM with UO-31 renal.

On to `O=C1CN(c2ccc(Cl)cc2)C(=O)CN1CCN1CC(=O)N(c2ccc(Cl)cc2)CC1=O`, for which the TGI with ACHN renal, with EKVX NSCLC, in the test on HCT-116 colon, with HS 578T breast, in the test on KM12 colon and with MDA-N was over 100 µM throughout. The TGI in the test with NCI-H460 lung, in the test with SK-MEL-5 melanoma, in the test with SR leukemia, in the test with U251 CNS, in the test with UACC-257 melanoma and in the test on UO-31 renal was over 100 µM throughout.
